According to patent US20210139844A1, “REPROGRAMMING FIBROBLASTS TO RETINAL CELLS” (UNIVERSITY OF NORTH TEXAS HEALTH SCIENCE CENTER, priority 2017, published 2021):
“Also recorded” adds a separate entry of the source.

Experiments:
[1] = system: Nrl-GFP MEFs; assay: Chemical reprogramming of Nrl-GFP MEFs to photoreceptor like cells (Nrl-GFP reporter); assay type: cell-based, mouse; conditions: for effect on reprogramming of removing the small molecule from the cocktail: small molecule subtracted from cocktail
From the text: Identification of small molecules for derivation of photoreceptor-like cells (CiPPC). […] The inventors have exploited this phenomenon to find out additional small molecules those might be important for the determination of retinal neuron specific fate. An array of small molecule along with different medium compositions and time points has been tested as possible candidates. Mouse Embryonic Fibroblasts (MEFs) from a photoreceptor specific reporter mouse (Nrl-GFP) are used as starting cells for the reprogramming studies (Akimoto et al., PNAS 103:3890-95, 2006). If converted to photoreceptors, these MEFs would have GFP expression from the Nrl promoter. […] This conversion requires three additional factors Sonic Hedgehog (S), Taurine (T) and Retinoic acid (R) introduced on day 8 (d8) (FIG. 1A and FIG. 1B). […] The inventors have tested the importance of each small molecule in the reprogramming process by using Nrl-GFP MEFs as starting cells.
All small molecules diluted in DMSO according to manufacturer's instruction. On day 0 about 35000 MEFs were seeded in each well of a 24 well plate (0.1% gelatin coated for O/N). At day 1 change the medium with photoreceptor induction medium (PIM) with V (0.5 mM), C (4.8 μM), R (2 μM) F (10 βM). On day 3 change the medium (PIM) with V, C, R, F plus IWR1 (I, 10 βM). Change the medium (PIM) with VCRFI on d5 and d6. On day 8 add Sonichedgehog (S, 3 nM), taurine molecules and factors. Finally on day 11 cells with GFP expression were observed. For the differentiation replace the medium with photoreceptor differentiation medium (PDM) and keep them up to d15 to d16. […] Cells were fixed or analyzed on day 7.

[2] = system: HepG2 cells; conditions: treated for several days; cited from earlier work
[3] = system: mitochondrial ROS; assay: Measurement of mitochondrial ROS (MitoSox staining, fluorometry); assay type: cell-based, mouse
From the text: Mitochondrial ROS activates NF-kB which controls CiPPC reprogramming by retrograde signaling. Next the inventors investigated the reasons behind NFkβ activation. Known inducers of NF-kB are highly variable including TNFα, LPS, Ionizing radiation and mitochondrial ROS (Formentini et al., Mol Cell 45:731-42, 2012; Andreakos et al., Blood 103:2229-37, 2004). […] So the inventors contemplated that mitochondrial ROS generated by small molecule treatment may activate NF-kB. […] The inventors found increased accumulation of mitochondrial ROS indicator mitosox during reprogramming starting from d5 compared to control MEFs (FIG. 6A, FIG. 6B and FIG. 6C). To measure the importance of mROS during chemical reprogramming, conversion experiments were performed in the presence of mitochondrial ROS scavenger, mitotempo.
Measurement of mitochondrial ROS. Mitochondrial ROS was detected and quantified. […] Cells were then washed twice with PBS and fluorescence has been monitored with a microplate reader set to 510 nm excitation (Ex bandwidth: 10 nm) and 595 nm emission (Em bandwidth 35 nm) wavelengths. mROS generation was also micrographed by Leica fluorescence microscope an quantified in Leica Application Suite X Software. […] Average intensity within each ROI was measured and exported to Excel data sheet. Average change in fluorescence was calculated for each type of cells. […]

[4] = system: HFL1-Nrl-DsRed cells; assay: Chemical reprogramming of human HFL1-Nrl-DsRed fibroblasts to photoreceptor like cells; assay type: cell-based; conditions: added during reprogramming
From the text: Identification of small molecules for derivation of photoreceptor-like cells (CiPPC). To identify small molecules responsible for retinal neuron specific fate, the inventors followed previous studies describing a set of small molecules that can convert fibroblasts into neurons (Hu et al., Cell stem cell 17:204-12, 2015; Zhang et al., Cell stem cell 17:735-47, 2015; Fu et al., Cell research 25, 2015; Cheng et al., Cell research 25:1269-72, 2015). Four out of six small molecules described in these studies, Valproic acid (V), CHIR(C), Repsox (R) and Forskolin(F), are able to convert fibroblast cells into mixed progenitor stage (Fu et al., Cell research 25, 2015). The inventors have exploited this phenomenon to find out additional small molecules those might be important for the determination of retinal neuron specific fate. An array of small molecule along with different medium compositions and time points has been tested as possible candidates. Mouse Embryonic Fibroblasts (MEFs) from a photoreceptor specific reporter mouse (Nrl-GFP) are used as starting cells for the reprogramming studies (Akimoto et al., PNAS 103:3890-95, 2006). If converted to photoreceptors, these MEFs would have GFP expression from the Nrl promoter. […] This conversion requires three additional factors Sonic Hedgehog (S), Taurine (T) and Retinoic acid (R) introduced on day 8 (d8) (FIG. 1A and FIG. 1B). Human fibroblasts (HFL1, ATCC CCL153) can also be converted into photoreceptor like cells by these small molecules. The inventors first generated a HFL-1 cell line having a lentivirally transduced DsRed reporter downstream of Nrl promoter. Drug selected HFL1-Nrl-DsRed cells were used for the reprogramming by the previously described mouse specific protocol with some modifications (FIG. 1C). Round shaped and neuron like Nrl promoter driven DsRed positive cells were evident starting from d6 to d8 (FIG. 1D). […]
All small molecules diluted in DMSO according to manufacturer's instruction. […] Cells were fixed or analyzed on day 7.

Molecule: Cc1cnc(-c2cnc(NCCNc3ccc(C#N)cn3)nc2-c2ccc(Cl)cc2Cl)[nH]1 [CHIR, 6-[2-[[4-(2,4-dichlorophenyl)-5-(5-methyl-1H-imidazol-2-yl)pyrimidin-2-yl]amino]ethylamino]-pyridine-3-carbonitrile]
- effect on reprogramming of removing the small molecule from the cocktail [1]: worst effect on reprogramming process

Molecule: Oc1nc(-c2ccc(C(F)(F)F)cc2)nc2c1CSCC2 [XAV939]
- axin stabilization [2]: can also stabilize the axin at cytosol

Molecule: CC1(C)CC(NC(=O)C[P+](c2ccccc2)(c2ccccc2)c2ccccc2)CC(C)(C)N1[O] [mitotempo]
- yield of reprogrammed cells ([1]; conversion in presence of mROS scavenger, printed as 'significantly decreased yield ... (20%)'): 20%
- number of Nrl-GFP+ reprogrammed cells at different concentrations ([1]; data not shown): dose dependent relationship
- mROS generation upon scavenger treatment ([3]; mitoSox staining, fluorometric analysis): decrease of mROS generation

Molecule: O=C(Nc1cccc2cccnc12)c1ccc(N2C(=O)[C@@H]3[C@H](C2=O)[C@@H]2C=C[C@H]3C2)cc1 [IWR1, N-(Quinolin-8-yl)-4-(exo-4-aza-3,5-dioxotricyclo[5.2.1.02,6]oct-8-en-4-yl)benzamide]
- conversion of GFP negative MEFs into GFP+ photoreceptor like cells ([1]; in presence of VCRF, d10 to d11, S, T, R introduced on d8): can covert GFP negative MEFs into GFP^+ positive round shaped photoreceptor like cells
- effect on reprogramming of removing the small molecule from the cocktail [1]: worst effect on reprogramming process; also recorded: reduced the reprogramming efficiency
- mROS generation in reprogramming without the small molecule ([3]; d8): did not show increase in mROS generation

Molecule: Cc1cccc(-c2n[nH]cc2-c2ccc3ncccc3n2)n1 [Repsox, 2-(3-(6-Methylpyridin-2-yl)-1H-pyrazol-4-yl)-1,5-naphthyridine]
- effect on reprogramming of removing the small molecule from the cocktail [1]: worst effect on reprogramming process

B1: NT3: factor added during human cell reprogramming (protein, UniProt P20783 139-257, looked up)
Neurotrophin-3: YAEHKSHRGEYSVCDSESLWVTDKSSAIDIRGHQVTVLGEIKTGNSPVKQYFYETRCKEARPVKNGCRGIDDKHWNSQCKTSQTYVRALTSENNKLVGWRWIRIDTSCVCALSRKIGRT
modifications: Neurotrophin-3
notes: factor added during human cell reprogramming
- morphology of converted human photoreceptor like cells [4]: helped these converted human photoreceptor like cells to have a healthy morphology

B2: BDNF: factor added during human cell reprogramming (protein, UniProt P23560 129-247, looked up)
Neurotrophic factor BDNF: HSDPARRGELSVCDSISEWVTAADKKTAVDMSGGTVTVLEKVPVSKGQLKQYFYETKCNPMGYTKEGCRGIDKRHWNSQCRTTQSYVRALTMDSKKRIGWRFIRIDTSCVCTLTIKRGR
modifications: Neurotrophic factor BDNF
notes: as for B1
- morphology of converted human photoreceptor like cells [4]: helped these converted human photoreceptor like cells to have a healthy morphology

B3: GDNF: factor added during human cell reprogramming (protein, UniProt P39905 78-211, looked up)
Glial cell line-derived …: SPDKQMAVLPRRERNRQAAAANPENSRGKGRRGQRGKNRGCVLTAIHLNVTDLGLGYETKEELIFRYCSGSCDAAETTYDKILKNLSRNRRLVSDKVGQACCRPIAFDDDLSFLDDNLVYHILRKHSAKRCGCI
- morphology of converted human photoreceptor like cells [4]: helped these converted human photoreceptor like cells to have a healthy morphology
